According to US20150064255A1, “NANOSTRUCTURES FOR TREATING CANCERS AND OTHER CONDITIONS” (Northwestern University, priority 2012, published 2015):

How the values were obtained:
[1] = biological target: T1, SR-B1 (Homo sapiens, UniProt Q8WTV0); test: BLT-1 cholesterol flux assays in SUDHL-4 cells; assay type: cell-based; details: SUDHL-4 cells pre-treated with 10 μM BLT-1 for 2 hr
T1 construct: treatment of SUDHL-4 cells with BLT-1 allowed a measurement of engagement and cholesterol flux through SR-B1; endogenous in cells; host or cells: SUDHL-4 cells
T1 sequence (Q8WTV0 1-552): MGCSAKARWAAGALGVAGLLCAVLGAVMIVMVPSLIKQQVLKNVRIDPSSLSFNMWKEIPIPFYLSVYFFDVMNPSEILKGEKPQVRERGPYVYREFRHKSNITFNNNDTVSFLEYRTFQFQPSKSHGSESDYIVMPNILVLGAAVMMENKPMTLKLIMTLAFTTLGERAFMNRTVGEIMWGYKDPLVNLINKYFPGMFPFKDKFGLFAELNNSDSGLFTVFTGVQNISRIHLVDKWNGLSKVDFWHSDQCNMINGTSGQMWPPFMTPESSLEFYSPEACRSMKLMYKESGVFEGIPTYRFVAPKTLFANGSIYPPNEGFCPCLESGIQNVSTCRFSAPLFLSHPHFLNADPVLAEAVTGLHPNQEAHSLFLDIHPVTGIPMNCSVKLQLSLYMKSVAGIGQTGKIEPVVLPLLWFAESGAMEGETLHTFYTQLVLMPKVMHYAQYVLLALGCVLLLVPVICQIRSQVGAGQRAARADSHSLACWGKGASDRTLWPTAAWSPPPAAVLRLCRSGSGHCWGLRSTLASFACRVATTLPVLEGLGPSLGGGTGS
Description: Blocker of lipid transport-1 (BLT-1) is a small molecule that binds cysteine-384 in the extracellular loop domain of SR-B1 and inhibits cholesterol flux through SR-B1 without altering the binding of HDL particles to the receptor. Thus, treatment of SUDHL-4 cells with BLT-1 allowed a measurement of engagement and cholesterol flux through SR-B1.
Alterations in cholesterol flux after addition of blocker of lipid transport 1 (BLT-1) were measured as described above; however, cells were pre-treated with 10 μM BLT-1 (2-hexyl-1-cyclopentanone thiosemicarbazone, ChemBridge Corporation) for 2 hr prior to cell treatments. Following cholesterol influx or efflux, the cells were collected in fresh media for measurement of cholesterol flux as previously described. Efflux is expressed as a percentage of the control cells, which were not treated with BLT-1. Influx is expressed as a percentage of the control cells, which were not treated with BLT-1.

[2] = system: Ramos cells; test: MTS cell viability assay; assay type: cell-based, human; details: untreated control set to 100%
Text: Ramos and SUDHL-4 cell lines are GC-derived B cell lines from BL and DLBCL, respectively. In addition, we chose to study the ABC-like DLBCL line, LY3. Jurkat cells and normal human lymphocytes provided SR-B1 receptor negative controls. In addition, we also chose two primary cells known to express SR-B1 that are critical cell types naturally engaged by HDLs, hepatocytes and macrophages. For each of the cell types, we measured cell viability by an MTS assay following treatment with human serum derived HDL (hHDL) or HDL-NPs. MTS is a colorimetric assay where the magnitude of absorbance is proportional to cell viability. For each treatment, and for each comparison made throughout our studies, we added equivalent doses of hHDL and HDL-NPs based upon the amount of apolipoprotein A-1 (Apo A1). […] Treatment with hHDL or HDL-NPs had no effect in primary hepatocytes or macrophage cells (FIGS. 3C and 3D). […]
For primary human hepatocytes and CD14+ monocytes, 9×10^3 cells/90 μL were seeded in 96-well plates and allowed to attach, and differentiate in the case of the CD14+ monocytes, for 24 hours prior to initiation of treatment. […] The absorbance was read at 490 nm using a microplate reader (MRX Revelation; DYNEX Technologies) and was expressed as a percentage of the control group. […]

| cholesterol flux to hHDL and HDL-NPs [1] | Compound | relative absorbance, MTS assay (cell viability) [2] |
| --- | --- | --- |
| inhibited cholesterol flux | CCCCCCC1CCCC1=NNC(N)=S (centres unmarked) [BLT-1, 2-hexyl-1-cyclopentanone thiosemicarbazone] |  |
|  | CCCCCCCCCCCCCCCC(=O)OC[C@H](COP(=O)(O)OCCNC(=O)CCSSc1ccccn1)OC(=O)CCCCCCCCCCCCCCC [PDP PE, 1,2-dipalmitoyl-sn-glycero-3-phosphoethanolamine-N-[3-(2-pyridyldithio)propionate]] | relatively small but statistically significant reduction |
